The source of these data is PMC11443414 (RSC Advances, 2024).

In assay [1] the target is T1, urease subunit gamma (UreA) (Staphylococcus aureus, UniProt Q6GEE6).
T1 sequence (Q6GEE6 1-100): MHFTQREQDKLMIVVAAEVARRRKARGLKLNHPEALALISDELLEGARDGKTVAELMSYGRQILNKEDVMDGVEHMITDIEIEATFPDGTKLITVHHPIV
Type of assay: binding.

Assay [2] has as its target T1, urease subunit gamma (UreA). Put plainly: DSF titration. In kind it is binding.

Counter-ions that a name gives are not always drawn.

Regarding `CCOc1ccc(/C=C2\NCCc3cc(OCC)c(OCC)cc32)cc1OCC` [compound 2, Drotaverine HCl], the “STD-NMR (individual, group epitope mapping); DSF Tm shift” value in assay [1] is reported as “Its GEM analysis indicated that CH2-18 received the highest saturation from the protein”. What is called Kd is the free concentration of one partner at which half of the binding sites on the other are occupied at equilibrium, for simple one-to-one binding. Read a high Kd as lower affinity. In the case of `O=C(O)c1cccnc1` [compound 11, Nicotinic acid], in assay [2], the affinity, expressed as Kd, was 70 mM. In other words, the millimolar range.
